Measurements as given in publication PMC5374710, “Discovery of the first dual GSK3β inhibitor/Nrf2 inducer. A new multitarget therapeutic strategy for Alzheimer’s disease” (Scientific Reports, 2017).
Like-named read-outs stand apart in the source and are kept apart here.

How the values were obtained:
[1] = tested on: Nrf2; assay: Nrf2-dependent luciferase reporter assay in AREc32 cell line; type: cell-based; details: for EC50: AREc32 cells, read-out: CD (concentration required to double the luciferase reporter activity)
Experimental: Thereafter, we tested the ability of the compounds to induce the Nrf2 transcription factor. We used an Nrf2-dependent luciferase reporter assay in the AREc32 cell line[45]. Cells were cultured for 24 h and then treated with increasing concentrations of compounds 5a–t (0.3, 3, 10 and 30 μM), including the known inducer sulforaphane, containing an isothiocyanate motive as positive control.
AREc32 cells were plated in 96-well white plates (2 × 10^4 cells/well). After 24 h, cells were incubated with increasing concentrations of each compound in duplicate for 24 h. AREc32 cells express constitutively the plasmid pGL-8xARE that implements 8 copies of the EpRE sequences followed by luciferase reporter gen. Therefore, Nrf2 induction is related to the activation of EpRE sequences, expressing luciferase at the same extent as EpRE sequences are activated. The Luciferase Assay System (Promega E1500), was used according to provider protocol and luminescence was quantified in an Orion II microplate luminometer (Berthold, Germany). Fold induction of luciferase activity was normalized to basal conditions. Data are expressed as CD values, expressing the concentration required to double the luciferase activity. CD values are calculated from dose-response curves generated from fold induction of control conditions vs. inducer concentration and fitted by non-linear regression and data interpolated to 2-fold induction concentration.
Breast cancer cells stably transfected to express luciferase after EpRE sequences MCF-7/AREc32 named AREc32, were kindly provided by Dr. C. Roland Wolf (University of Dundee, UK).^14 AREc32 cells were maintained in DMEM with high glucose-glutamax, supplemented with 10 % FBS, 1 % penicillin-streptomycin (10,000 units), and geneticin (0.8 mg/ml G418) at 37 °C and in a 5 % CO2- air atmosphere.^14
AREc32 cells are constitutively transfected with the pGL-8xARE luciferase reporter gene, inserted after EpRE sequences. Thus, Nrf2 translocation to the nucleus induces the activation of the EpRE sequences, expressing their target phase II antioxidant genes, and expressing luciferase at the same extent.^15 AREc32 cells were plated in 96-well white plates (2X10^4 cells/well). After 24 h, cells were incubated with increasing concentrations of each compound in duplicate for 24 h (dissolved in DMSO to give a final 0.1 % vol/vol concentration of vehicle). Each plate included non-treated cells as basal luciferase expression and tBHQ (10 µM) as positive control. TBHQ is a potent Nrf2 inducer used as control in the development of the AREc32 cells.^14 Transfected clones are selected using G418. AREc32 cells express constitutively the plasmid pGL-8xARE that implements 8 copies of the EpRE sequences followed by a luciferase reporter gene. Therefore, the induction of Nrf2 is proportional to the activation of EpRE sequences, expressing luciferase at the same extent as EpRE sequences are activated. Luciferase production is then assessed by a bioluminescence assay. The Luciferase Assay System (Promega E1500), was used according to the Promega protocol and luminescence was quantified in an Orion II microplate luminometer (Berthold, Germany). Relative Light Units (RLU) were recorded for the contents of each well. Fold induction of luciferase activity was calculated by dividing the RLU obtained for the tests wells for each treatment by the average RLU obtained for the basal conditions. Data are expressed as CD values, expressing the concentration required to double the basal luciferase activity, used to quantify the Nrf2 induction potency. CD values are calculated from dose-response curves generated from fold induction of control conditions vs. inducer concentration and fitted by non-linear regression and data interpolated to value the 2-fold induction concentration, using GraphPad Prism software (San Diego, CA, USA).

[2] = tested on: HepG2 cells; assay: Hepatotoxicity in HepG2 cell line (MTT); details: 24 h
Experimental: Thus, it is relevant to study the potential neurotoxicity and hepatotoxicity of the novel dual GSK3β inhibitors-Nrf2 inducers 5a–t.
Viability was measured as MTT reduction in presence of increasing concentrations of derivatives. Values are expressed as LD50 calculated from dose-response curves of four different concentrations.
HepG2 cells were cultured according to supplier indications in EMEM supplemented with 10 % heat-inactivated FBS, 100 µg/mL streptomycin and 100 units/mL penicillin. Cells were maintained at 37 °C in humidified atmosphere of 95 % air and 5 % CO2. For experimental procedures, cells were cultured in 96-well plates at density of 1x10^5 cells/well. Treatments were performed in 1% FBS medium unless other concentration was specified. Cells were used from 4 up to 13 passages.
Cells were cultured in 48-well (SH-SY5Y, 1x10^5 cells per well) or 96-well plates (HepG2, 1x10^5 cells per well) for 24 h. […] Control cells were incubated with the same concentration of DMSO (0.1 % final concentration) without any drug.

[3] = tested on: SH-SY5Y cells; assay: Neuroprotection against rotenone/oligomycin A (R/O), MTT; type: cell-based; details: 1 μM, 24 h pre-incubation, 24 h co-incubation with rotenone/oligomycin A 30/10 μM
Experimental: Figure 5 Compounds 5a–t exert neuroprotection in in vitro models of AD. […] Then, treatments were removed and cells were co-incubated with each treatment and okadaic acid for 18 h or R/O for 24 h. Cell viability was measured by the MTT reduction assay. Values are expressed as mean ± SEM of five independent experiments in triplicate. ***p < 0.001; **p < 0.01 respect to toxic stimuli treated cells, considered as 0% of protection.
As stated in the Introduction, oxidative stress is considered one of the main causes of neuronal death in AD. Therefore, we were interested in evaluating the potential antioxidant activity of compounds 5a–t in a model of oxidative stress and energy depletion, which in turn increase cell death. For this purpose, we selected the combination of rotenone (30 μM) and oligomycin A (10 μM) (R/O) to induce neurotoxicity as a model system[23][40] to evaluate the potential neuroprotective activity of the compounds. Melatonin, a well-known antioxidant natural compound, was included as a positive control.
(§1) A pre- and co-incubation protocol was followed. Cells were pre-incubated with the corresponding compound at 1 μM in neuroblastoma cells culture medium. After 24 h, medium was removed and replaced with 1% FBS neuroblastoma culture media containing the corresponding compound (1 μM) and the toxic stimuli, the mixture of rotenone and oligomycin A (30 μM/10 μM respectively) or okadaic acid at 20 nM. Cells were co-incubated for further 24 h with the rotenone and oligomycin A solution or 18 h with the okadaic acid solution. Control cells were incubated with the same amount of DMSO without any drug. After the co-incubation period, cell viability was assessed by the MTT-reduction method.
as §1, with “A pre” for “A pre-”, “1 µM” for “1 μM”, “compound at 1 µM” for “compound (1 μM)”, “stimuli, namely a” for “stimuli, the”, “(30 µM / 10 µM” for “(30 μM/10 μM”, “drug. […]” for “drug.”
The percentage of protection was calculated as follows: the percentage of cell survival obtained with the toxic stimuli-treated cells subtracted to 100 was normalized to 100 % of cell death. The percentage of protection was obtained by subtracting the percentage of cell death in presence of the tested compound to 100%.

[4] = tested on: SH-SY5Y cells; assay: Neuroprotection against okadaic acid (tau hyperphosphorylation), MTT; type: cell-based; details: 1 μM, 24 h pre-incubation, 18 h co-incubation with OA 20 nM
[5] = biological target: T1, Keap1 Kelch domain (Homo sapiens, UniProt Q14145); assay: Differential scanning fluorimetry assay; type: binding; details: ligand concentration 10 µM
T1 construct: A solution of the Keap1 Kelch domain protein (5 µM)
Experimental: A solution of the Keap1 Kelch domain protein (5 µM) and detection dye SYPRO® orange (5X) in DPBS at pH 7.4 was added onto a qPCR plate containing the compound inhibitor (10 µM, 10% final DMSO concentration, 40 µL final volume). The plate was sealed using an optical foil seal and covered with aluminum foil to protect the dye from light. The plate was then transferred to a plate centrifuge and spun down briefly (200 G, 1 min, room temperature) to remove any bubbles and collect the solution at the bottom of the wells. Following a 30 min incubation at room temperature, the plate was placed into a 7500 Real time PCR machine and the fluorescence intensity at an excitation of 465 nm and emission of 580 nm was recorded during a temperature scan from 25 °C to 95 °C with a temperature ramping rate of 1 °C/min. All measurements were run in triplicate. Life Technologies software was used to set up the run on 7500 Software v.2.0.0 and the initial data processing was carried out on Protein thermal shift solution software. The raw data were exported to MS Excel and analysis was performed using a custom script provided by the Structural Genomics Consortium Oxford.^18 The temperature range over which the protein unfolding occurred was selected and the maximum and minimum (at temperatures below the maximum intensity) fluorescence intensities within this range were determined. The processed data were fitted to the Boltzmann equation by non-linear regression using the Origin Pro software.

[6] = biological target: T2, Nrf2-Keap1 protein-protein interaction (Homo sapiens, UniProt Q14145); assay: Fluorescence polarization assay of Nrf2-Keap1 interaction; type: binding; details: ligand concentration 10 µM; read-out: FP % Inhibition (± SEM)
T2 construct: a solution of the Keap1 Kelch domain (200 nM)
T2 sequence (Q14145 321-609 limits assumed): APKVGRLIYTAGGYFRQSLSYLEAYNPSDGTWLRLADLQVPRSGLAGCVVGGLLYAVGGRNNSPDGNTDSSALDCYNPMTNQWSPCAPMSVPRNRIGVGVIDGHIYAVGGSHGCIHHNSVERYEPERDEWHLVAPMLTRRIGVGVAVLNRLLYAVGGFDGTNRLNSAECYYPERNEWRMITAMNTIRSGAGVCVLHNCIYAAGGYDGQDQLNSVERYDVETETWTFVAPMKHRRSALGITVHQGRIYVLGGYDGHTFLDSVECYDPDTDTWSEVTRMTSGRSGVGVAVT
Experimental: Data are presented the means ± SEM of two experiments performed in triplicate.
The FP assay was carried out as previously described.^16,17 Inhibitors (10 µM) were plated onto untreated Corning® black 96 well plates containing a solution of the Keap1 Kelch domain (200 nM) and the fluorescent peptide FITC-β-DEETGEF-OH (1 nM) in Dulbecco’s Phosphate Buffered Saline (DPBS) at pH 7.4 (11% final DMSO concentration, 100 µL final volume). Following a 30 min incubation under slow agitation and away from light at room temperature, the plates were transferred to a PHERAstar microplate reader (BMG Labtech, Ortenberg, Germany) and the fluorescence polarisation was recorded. All measurements were recorded in triplicate.

T1 sequence (Q14145 321-609 limits assumed): as above

Row | Compound | EC50 ([1]; Arec32, 24 h) [µM] | HepG2 LD50 [2] [µM] | also measured
1 | Cc1n[nH]c2c1C(c1ccc(Cl)cc1)C(C#N)=C(N)O2 (stereo not shown) [Compound 5k, 6-Amino-4-(4-chlorophenyl)-3-methyl-2,4-dihydropyrano[2,3-c]pyrazole-5-carbonitrile] | 8.31 ± 1.5 | > 100 | 
2 | COc1ccc(C2C(C#N)=C(N)Oc3n[nH]c(C)c32)cc1 (stereo not shown) [Compound 5d, 6-Amino-4-(4-methoxyphenyl)-3-methyl-2,4-dihydropyrano[2,3-c]pyrazole-5-carbonitrile] | 25.3 ± 2.4 | > 100 | Percentage of protection against R/O toxicity [3]: 38.8%
3 | Cc1n[nH]c2c1C(c1ccc(F)cc1)C(C#N)=C(N)O2 (stereo not shown) [Compound 5h, 6-Amino-4-(4-fluorophenyl)-3-methyl-2,4-dihydropyrano[2,3-c]pyrazole-5-carbonitrile] | 14.6 ± 4 | > 100 | 
4 | Cc1n[nH]c2c1C(c1ccco1)C(C#N)=C(N)O2 (stereo not shown) [Compound 5q, 6-Amino-4-(furan-2-yl)-3-methyl-2,4-dihydropyrano[2,3-c]pyrazole-5-carbonitrile] | 25.2 ± 2.4 | > 100 | 
5 | Cc1[nH]nc2c1C(c1cccnc1)C(C#N)=C(N)O2 (stereo not shown) [Compound 5s, 6-Amino-3-methyl-4-(pyridin-3-yl)-2,4-dihydropyrano[2,3-c]pyrazole-5-carbonitrile] | 8.91 ± 2.2 | > 100 | Percentage of protection against R/O toxicity [3]: 57.9%
6 | Cc1cccc(C2C(C#N)=C(N)Oc3n[nH]c(C)c32)c1 (stereo not shown) [Compound 5f, 6-Amino-3-methyl-4-(3-methylphenyl)-2,4-dihydropyrano[2,3-c]pyrazole-5-carbonitrile] | 14.1 ± 2.1 | > 100 | Percentage of protection against okadaic acid toxicity [4]: over 50%
7 | Cc1[nH]nc2c1C(c1ccc([N+](=O)[O-])cc1)C(C#N)=C(N)O2 (stereo not shown) [Compound 5p, 6-Amino-3-methyl-4-(4-nitrophenyl)-2,4-dihydropyrano[2,3-c]pyrazole-5-carbonitrile] | 15 ± 4.3 | > 100 | 
8 | Cc1[nH]nc2c1C(c1ccc(Br)cc1)C(C#N)=C(N)O2 (stereo not shown) [Compound 5m, 6-Amino-4-(4-bromophenyl)-3-methyl-2,4-dihydropyrano[2,3-c]pyrazole-5-carbonitrile] | < 10 | > 100 | Luciferase activity increase alone versus in presence of Li (10 mM) ([1]; 3 μM to 30 μM, 24 h): to the same extent and without statistically significant differences; EC50 ([1]; 24 h): 9.37 ± 1.4 µM; ΔTm at 10 µM [5]: -0.14 ± 0.35 °C; inhibition at 10 µM [6]: < 0%; Percentage of protection against okadaic acid toxicity [4]: over 50%
9 | Cc1n[nH]c2c1C(c1cccs1)C(C#N)=C(N)O2 (stereo not shown) [Compound 5r, 6-Amino-3-methyl-4-(thiophen-2-yl)-2,4-dihydropyrano[2,3-c]pyrazole-5-carbonitrile] | 17.6 ± 8.4 | > 100 | 
10 | Cc1[nH]nc2c1C(c1cccc(Cl)c1)C(C#N)=C(N)O2 (stereo not shown) [Compound 5j, 6-Amino-4-(3-chlorophenyl)-3-methyl-2,4-dihydropyrano[2,3-c]pyrazole-5-carbonitrile] | 5.38 ± 0.5 | > 100 | 
11 | Cc1n[nH]c2c1C(c1ccccc1Br)C(C#N)=C(N)O2 (stereo not shown) [Compound 5l, 6-Amino-4-(2-bromophenyl)-3-methyl-2,4-dihydropyrano[2,3-c]pyrazole-5-carbonitrile] | > 30 | > 100 | Percentage of protection against R/O toxicity [3]: 24.1%
12 | Cc1ccccc1C1C(C#N)=C(N)Oc2[nH]nc(C)c21 (stereo not shown) [Compound 5e, 6-Amino-3-methyl-4-(2-methylphenyl)-2,4-dihydropyrano[2,3-c]pyrazole-5-carbonitrile] | > 30 | > 100 | 
13 | Cc1[nH]nc2c1C(c1ccccc1[N+](=O)[O-])C(C#N)=C(N)O2 (stereo not shown) [Compound 5n, 6-Amino-3-methyl-4-(2-nitrophenyl)-2,4-dihydropyrano[2,3-c]pyrazole-5-carbonitrile] | 11.3 ± 5.5 | > 100 | Percentage of protection against okadaic acid toxicity [4]: 34.7%
14 | Cc1[nH]nc2c1C(c1cccc([N+](=O)[O-])c1)C(C#N)=C(N)O2 (stereo not shown) [Compound 5o, 6-Amino-3-methyl-4-(3-nitrophenyl)-2,4-dihydropyrano[2,3-c]pyrazole-5-carbonitrile] | 18.9 ± 2.9 | > 100 | Percentage of protection against okadaic acid toxicity [4]: 48%
15 | Cc1ccc(C2C(C#N)=C(N)Oc3[nH]nc(C)c32)cc1 (stereo not shown) [Compound 5g, 6-Amino-3-methyl-4-(4-methylphenyl)-2,4-dihydropyrano[2,3-c]pyrazole-5-carbonitrile] | 25.4 ± 2.5 | > 100 | 
16 | Cc1[nH]nc2c1C(c1ccccc1)C(C#N)=C(N)O2 (stereo not shown) [Compound 5a, 6-Amino-3-methyl-4-phenyl-2,4-dihydropyrano[2,3-c]pyrazole-5-carbonitrile] | 20.5 ± 3.4 | > 100 | Percentage of protection against okadaic acid toxicity [4]: 27.7%
17 | COc1ccccc1C1C(C#N)=C(N)Oc2n[nH]c(C)c21 (stereo not shown) [Compound 5b, 6-Amino-4-(2-methoxyphenyl)-3-methyl-2,4-dihydropyrano[2,3-c]pyrazole-5-carbonitrile] | > 30 | > 100 | Percentage of protection against R/O toxicity [3]: 39.1%
18 | Cc1n[nH]c2c1C(c1ccccc1Cl)C(C#N)=C(N)O2 (stereo not shown) [Compound 5i, 6-Amino-4-(2-chlorophenyl)-3-methyl-2,4-dihydropyrano[2,3-c]pyrazole-5-carbonitrile] | 23.5 ± 3.2 | > 100 | 
